From PMC11249646, “Small-Molecule Disruptors of the Interaction between Calcium- and Integrin-Binding Protein 1 and Integrin αIIbβ3 as Novel Antiplatelet Agents” (ACS Pharmacology & Translational Science, 2024)
Read-outs that look alike come from different tables or passages of the source.

What was measured:
Assay type in all cases: binding
[1] = target: T1, CIB1 and αIIb interaction (CIB1-GST : F-αIIb peptide) (Homo sapiens, UniProt Q99828); assay: FP assay, 1536-well qHTS format (primary and confirmatory screen); conditions: for CONFIRMATORY SCREEN Confirm?: YES/NO call; for CONFIRMATORY SCREEN Efficacy (%) / Efficacy (%): negative = inhibition
T1 construct: made in house; host or cells: BL-21 plus RIL cells (E. coli)
T1 sequence (Q99828 1-191): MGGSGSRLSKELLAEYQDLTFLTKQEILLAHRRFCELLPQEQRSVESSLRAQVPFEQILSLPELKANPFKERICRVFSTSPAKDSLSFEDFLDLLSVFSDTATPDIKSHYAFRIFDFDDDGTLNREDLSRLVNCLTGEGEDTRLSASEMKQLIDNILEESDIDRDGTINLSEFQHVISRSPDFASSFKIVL

[2] = target: T2, GST-CIB1 : F-scrambled peptide (Homo sapiens, UniProt Q99828); assay: FP scrambled-peptide counter screen, 384-well format; conditions: F-scrambled peptide; for 384-well COUNTERSCREEN Confirm?: *: Curve in opposite direction; for IC50: read-out: 384-well COUNTERSCREEN IC50
T2 construct: made in house; host or cells: BL-21 plus RIL cells (E. coli)
T2 sequence (Q99828 1-191): T1 sequence (Q99828 1-191)

[3] = target: T3, CIB1 and αIIb interaction (GST-CIB1 : F-αIIb peptide) (Homo sapiens, UniProt Q99828); assay: FP assay, 384-well format (screen); parameters: 384-well SCREEN Efficacy (%): concentration or dose not given beside the values; conditions: F-αIIb peptide; for 384-well SCREEN Confirm?: YES/NO; for IC50: read-out: 384-well SCREEN IC50
T3 construct: made in house; host or cells: BL-21 plus RIL cells (E. coli)
T3 sequence (Q99828 1-191): T1 sequence (Q99828 1-191)

[4] = target: T2, GST-CIB1 : F-scrambled peptide; assay: FP scrambled-peptide counter screen, 1536-well format; conditions: for COUNTERSCREEN Confirm?: YES/NO call
[5] = confirmatory screen, qHTS curve class, negative sign = inhibitory curve
[6] = confirmatory screen, read-out: CONFIRMATORY SCREEN IC50
[7] = scrambled-peptide counterscreen
[8] = qHTS primary screen hits, Table S2
[9] = qHTS primary screen hits, Table S2, negative sign = inhibitory curve
[10] = qHTS primary screen hits, Table S2, read-out: IC50
[11] = qHTS FP screen hits, Table S2, read-out: IC50
[12] = qHTS FP screen hits, Table S2, one class per curve where COUNT > 1, negative sign = inhibitory curve
[13] = scrambled-peptide counterscreen, qHTS curve class

Structure (SMILES)	CONFIRMATORY SCREEN Confirm? ([1]; confirmatory screen)	CONFIRMATORY SCREEN Curve Class [1, 5]	CONFIRMATORY SCREEN Efficacy (%) ([1]; confirmatory screen)	IC50 [1, 6]	384-well COUNTERSCREEN Efficacy (%) [2]	384-well COUNTERSCREEN Confirm? [2]	IC50 [2]	384-well SCREEN Efficacy (%) [3]	384-well SCREEN Confirm? [3]	IC50 [3]	COUNTERSCREEN Efficacy (%) [4, 7]	COUNTERSCREEN Confirm? [4, 7]	Efficacy (%) [1, 8]	Curve Class [1, 9]	IC50 [1, 10]	Efficacy (%) ([1]; qHTS FP screen hits, Table S2)	COUNTERSCREEN Curve Class [4, 13]	other results
CCc1oc2ccccc2c1C(=O)c1cc(Br)c(O)c(Br)c1 [NCGC00013895-08]	YES	-1.2	-66%	22.4 µM	60%	YES	12.6 µM	39%	YES	25.1 µM	52%	YES	–	–	–	–	–	IC50 ([4]; scrambled-peptide counterscreen, read-out: COUNTERSCREEN IC50): 20 µM
O=C(O)C1=CC(=C(c2ccc(O)c(C(=O)O)c2)c2ccc(O)c(C(=O)O)c2)C=CC1=O [NCGC00015040-05]	–	–	–	–	15%	YES	> 120 µM	45%	YES	4.6 µM	–	–	-33%	-1.2	3.2 µM	–	–	–
OCCN(CCO)c1nc(N2CCCCC2)c2nc(N(CCO)CCO)nc(N3CCCCC3)c2n1 [NCGC00015385-15]	–	–	–	–	200%	–	22.2 µM	175%	YES	22.2 µM	–	–	-172%	-1.1	12.7 µM	–	–	–
Cl.O=C1c2c(O)ccc(O)c2C(=O)c2c(NCCNCCO)ccc(NCCNCCO)c21 [NCGC00015693-04]	–	–	–	–	75%	–	5.8 µM	80%	YES	4.1 µM	–	–	–	–	–	-85%	–	Efficacy (%) (confirmatory screen) ([1]; confirmatory screen): -112%; Confirm? (confirmatory screen) ([1]; confirmatory screen, YES/NO): YES; Curve Class (confirmatory screen) [1, 5]: -1.1; IC50 ([1]; confirmatory screen, read-out: IC50 [μM] (confirmatory screen)): 20 µM; IC50 [1, 11]: 25.2 µM; Efficacy (%) (counterscreen) ([4]; counterscreen): -125%; Curve Class (counterscreen) ([4]; counterscreen, qHTS curve class, negative sign = inhibitory curve): -1.1; IC50 ([4]; counterscreen, read-out: IC50 [μM] (counterscreen)): 20 µM
CC[C@@H](CO)NC(=O)[C@@H]1C=C2c3cccc4[nH]cc(c34)C[C@H]2N(C)C1.O=C(O)/C=C\C(=O)O [NCGC00017258-05]	YES	-2.4	-34%	–	80%	–	–	80%	YES	60 µM	-16%	YES	–	–	–	-131%	4	Curve Class [1, 12]: -2.1
NS(=O)(=O)c1cccc2c1c([N+](=O)[O-])cc1nc(O)c([O-])nc12.[Na+] [NCGC00024961-03]	–	–	–	–	70%	–	7.4 µM	70%	YES	9.1 µM	–	–	-46%	-1.2	5 µM	–	–	–
Cc1ccc(C)n1-c1cccc(C(=O)O)c1.O=C(O)C(F)(F)F [NCGC00060597-02]	YES	-1.2	-42%	8.9 µM	24%	YES	> 120 µM	30%	YES	17.7 µM	-11%	YES	–	–	–	–	4	–
C=CCNc1oc(-c2cccc3ccccc23)nc1C#N.O=C(O)C(F)(F)F [NCGC00068824-04]	YES	-1.2	-78%	15.8 µM	51%	–	4.5 µM	71%	YES	4 µM	-19%	YES	–	–	–	-38%	4	Curve Class [1, 12]: -1.2; IC50 [1, 11]: 17.8 µM
